Consider 48 compounds from the OPERA property sets (Mansouri et al. 2018).

Each structure is given as a SMILES string.

Consider `CCCSC(=O)N(CCC)CCC`, for which the log10 Koc (L/kg) was 2.33 and the log10 vapour pressure (mmHg) is -1.98.

Consider `C=CC[Si](C)(C)Cl`, for which the boiling point – broadly, the temperature of boiling at a given pressure – worked out at 111 °C. In the case of `Nc1c(I)cc(I)c(C(=O)N(CCC(=O)O)c2ccccc2)c1I`, the melting point (usually the temperature of the solid-liquid transition) stood at 134 °C. On the same count and under the same terms, the same measure for `NS(=O)(=O)c1cc2c(cc1Cl)NC(CC1CCCC1)NS2(=O)=O` (stereo unspecified): 238 °C.

As to `O=C(CBr)OCC=CCOC(=O)CBr`, the ready biodegradability entry is “readily biodegradable”.

On to `COc1ccc(C=O)cc1OC`, for which the boiling point was 281 °C, the melting point was 43 °C and the ready biodegradability result is “readily biodegradable”.

`CCOC(=O)C(C)(C)O` yielded a boiling point of 150 °C. `C[N+]1(C)CCCCC1` came in with a log10 Koc (L/kg) of 6. For `NC(=O)C(N)=O`, the log10 vapour pressure (mmHg) was -7.2. For the compound `O=[N+]([O-])c1ccccc1Cl`, the ready biodegradability entry is “not readily biodegradable”. The compound `CCCCCCCCOC=O` had a boiling point of 199 °C and a melting point of -39.1 °C. With `CC1CCCC(O)C1` (stereo unspecified), the boiling point was determined as 163 °C, the log10 Henry constant (atm·m³/mol) was -5.44 and the log10 vapour pressure (mmHg) is -0.32. In the case of `CC(CCl)OP(=O)(OC(C)CCl)OC(C)CCl` (stereo unspecified), the melting point is -40 °C and the ready biodegradability entry is on record as “not readily biodegradable”. Take `CN(C)C1CCCCC1`: the boiling point was 160 °C and the log10 Henry constant (atm·m³/mol) is -4.63.

As to `COc1ccc(Nc2ccc(N)cc2)cc1`, the melting point was 102 °C. In turn, `COc1cc([C@@H]2c3cc4c(cc3C(O[C@@H]3O[C@@H]5COC(c6cccs6)O[C@H]5[C@H](O)[C@H]3O)C3COC(=O)[C@@H]32)OCO4)cc(OC)c1O` (stereo partly specified) yielded a melting point of 244 °C. `FC(Cl)Br` (stereo unspecified) came in with a boiling point of 36 °C and a melting point of -115 °C. On to `CC(C)Cl`, for which the boiling point came out at 35.7 °C, the log10 vapour pressure (mmHg) was found to be 2.71 and the melting point was -117 °C. The matching figures for `C1OCOCO1`: 114 °C, 1.24 and 60.2 °C. On to `Brc1cccc(I)c1`, for which the boiling point is 252 °C and the melting point is -9.3 °C. Turning to `NC(=O)Nc1cccc(Br)c1`, the log10 Koc (L/kg) was determined as 2.12. Take `COc1cc(C)ccc1C`: the boiling point worked out at 194 °C. Still for that read-out and setting: the same measure for `CCCCc1ccc(N)cc1`: 261 °C. The compound `CC(C)(C#N)C#N` returned a boiling point of 170 °C, a log10 vapour pressure (mmHg) of 0.16 and a melting point of 31.5 °C. Consider `COCC(C)O` (stereo unspecified), for which the boiling point stood at 119 °C, the log10 Henry constant (atm·m³/mol) is -6.04, the log10 vapour pressure (mmHg) came to 1.1 and the melting point is -95 °C. Further, the ready biodegradability result is given as “readily biodegradable”.

The compound `Cc1cc(O)c(Cl)c(C)c1Cl` registered a melting point of 83 °C. `O=C1CC(c2ccccc2)Oc2ccccc21` (stereo unspecified) had a melting point of 77 °C. The compound `CCN(CC)CCCN` showed a boiling point of 168 °C. Compound `CC(C)CC(=O)C1C(=O)c2ccccc2C1=O` registered a melting point of 68.5 °C. Take `O=C1c2ccccc2-c2cccc3cccc1c23`: the melting point was found to be 170 °C and the ready biodegradability entry is “not readily biodegradable”. The compound `O=C(CCCl)NCc1ccccc1` returned a melting point of 94 °C.

Consider `CCCCCCOC(=O)CCC`, for which the boiling point worked out at 208 °C and the melting point is -78 °C.

`CC(=O)Nc1ccc(S(N)(=O)=O)cc1` had a melting point of 220 °C.

The compound `CC(=O)Oc1ccc(OC(C)=O)c(-c2ccccc2)c1` displayed a melting point of 68 °C.

Consider `CC(C)(C)CCC(C)(C)C`, for which the boiling point turned out to be 137 °C, the log10 vapour pressure (mmHg) worked out at 0.942 and the melting point is -12.6 °C. Consider `CSc1ccc(C(=O)O)cc1`, for which the melting point worked out at 194 °C. `CCOC(=O)C(Cl)Cl` showed a boiling point of 155 °C and a log10 vapour pressure (mmHg) of 0.456. `Cc1cccc(Cl)c1Cl` came in with a boiling point of 208 °C and a melting point of 6 °C. `CC(F)(F)CCl`: the boiling point was 55 °C and the melting point was -56.2 °C. The compound `COc1ccc(CCN2CCC(Nc3nc4ccccc4n3Cc3ccc(F)cc3)CC2)cc1` gave a melting point of 149 °C. Compound `CCOC(=O)Nc1cccc(OC(=O)Nc2ccccc2)c1` returned a log10 Koc (L/kg) of 3.18, a log10 vapour pressure (mmHg) of -8.52 and a melting point of 120 °C. In turn, `O[C@@H]1[C@@H](O)[C@@H]2OC[C@@H](O2)[C@H]1O` returned a log10 vapour pressure (mmHg) of -7.12 and a melting point of 183 °C. For `CC(=O)Oc1ccc(C(=C2CCCCC2)c2ccc(OC(C)=O)cc2)cc1`, the melting point came to 136 °C. On to `c1ccc2sccc2c1`, for which the boiling point was 221 °C, the log10 Koc (L/kg) was found to be 3.48, the log10 biodegradation half-life (days) amounted to 1.4 and the log10 vapour pressure (mmHg) was -0.624. This compound also returned a melting point of 32 °C. Take `COc1cc(C=O)cc(OC)c1`: the melting point was 46.3 °C.

In turn, `O=C(O)CCCCBr` displayed a melting point of 39 °C. On the same count and under the same terms, the same measure for `CC(=O)OCC(=O)[C@H]1CC[C@H]2[C@@H]3CC=C4C[C@@H](O)CC[C@]4(C)[C@H]3CC[C@]12C`: 184 °C.

`CCCCCCCCCCCCCCCCC` registered a boiling point of 302 °C, a log10 biodegradation half-life (days) of 1.3, a log10 vapour pressure (mmHg) of -3.64 and a melting point of 22 °C. In addition, the ready biodegradability entry was “readily biodegradable”.
